Where no end group is shown, it is not given here.
Experiments:
[1] = tested on: Escherichia coli ATCC 25922; assay: MIC assay, broth microdilution (CLSI); type: cell-based; settings: E. coli ATCC 25922; peptide: None
Protocol: MIC assays were performed according to protocols for broth microdilution according to the Clinical Laboratory Standards Institute (CLSI, 2015. Methods for Dilution Antimicrobial susceptibility tests for bacterial that grow aerobically; Approved standard—tenth edition).

TLR3 signaling = assay: IL-6 production (ELISA) in BEAS-2B cells induced with poly(I:C); type: cell-based, human; settings: for Enhancement of TLR3 signaling / poly(I:C)-induced IL-6, in words: BEAS-2B cells
Protocol: (§1) IL-6 production was quantified by ELISA using the OptEIA™ kit (BD Biosciences). A typical assay used 2×10^4 BEAS-2B cells/well grown for 24 h in flat bottom 96-well plates. Poly(I:C) was added to a final concentration of 0.13 μg/ml. Antimicrobial peptides were added to the cell culture medium to a final concentration of 3 μM unless specified otherwise. All ELISA results shown were performed in triplicate and in at least three independent experiments.
(§2) To better define how residues in LL-37 contribute to function, several variants derived from LL-37 were tested for: 1) repression of TLR4 signaling by LPS, 2) enhancement of TLR3 signaling by poly(I:C), and 3) binding to LL-37. Signaling by TLR3 and TLR4 were monitored using ELISA to detect IL-6 secreted into the medium of BEAS-2B cells.

[2] = Dynamic light scatter spectroscopy, hydrodynamic radius; type: physicochemical
Protocol: The hydrodynamic radii of LL-37 and other peptides were monitored by a Zetasizer Nano-S instrument (Malvern Instruments). All measurements were taken with 1 μM of peptide dissolved in phosphate buffer adjusted to the desired pH at 22° C.

TLR4 signaling = assay: IL-6 production (ELISA) in BEAS-2B cells induced with LPS; type: cell-based, human; settings: BEAS-2B cells induced with 1.0 μg/ml of LPS; LL-37 100
Protocol: as §1, §2

f-LL37 = biological target: T1, f-LL37 (Homo sapiens, UniProt P49913); assay: Fluorescence polarization, interaction of peptides with fluorescein-labeled LL-37; type: binding
T1 sequence (P49913 134-170 limits assumed): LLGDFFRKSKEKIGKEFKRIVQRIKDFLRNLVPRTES
Protocol: Peptide binding to poly(I:C) was analyzed by monitoring fluorescence polarization using the Synergy H1 microplate reader (BioTek). Fluorescein-labeled LL-37 was titrated to a 100 μL solution containing poly(I:C) and phosphate buffers at different pHs. Interactions between LL-37 and other peptides were analyzed using LL-37 labeled at the N-terminus with fluorescein (0.1 μM), and peptides were titrated from 1 nM to 1000 nM in phosphate buffer at pH 7.0. Interaction between poly(I:C) and different peptides was determined by titrating fluorescein-labeled poly(I:C) (0.1 μM) with peptides added to final concentrations of 10 to 500 nM in phosphate buffer at pH 7.4. All polarization assays were performed in triplicate.

Compound: COc1cccc2c1C(=O)c1c(O)c3c(c(O)c1C2=O)C[C@@](O)(C(=O)CO)C[C@@H]3O[C@H]1C[C@H](N)[C@H](O)[C@H](C)O1 [Doxorubicin, reference compound]
- MIC (μg/ml) of antibiotic, no peptide [1]: 0.5 µg/mL

Compound: NC[C@H]1O[C@H](O[C@H]2[C@H](O)[C@@H](O[C@H]3O[C@H](CO)[C@@H](O)[C@H](N)[C@H]3O)[C@H](N)C[C@@H]2N)[C@H](O)[C@@H](O)[C@@H]1O [Kanamycin, reference compound]
- MIC (μg/ml) of antibiotic, no peptide [1]: 4 µg/mL

Compound: COc1cc(Cc2cnc(N)nc2N)cc(OC)c1OC [Trimethoprim, reference compound]
- MIC (μg/ml) of antibiotic, no peptide [1]: 0.25 µg/mL

Compound: RL-37: LL-37 ortholog from Rhesus monkey, SEQ ID NO: 20 (RLGNFFRKVKEKIGGGLKKVGQKIKDFLGNLVPRTAS; (1)..(37) Monkey RL-37; listed as Macaca mulatta) [reference compound]
- Enhancement of TLR3 signaling / poly(I:C)-induced IL-6, in words (TLR3 signaling): more similar to that of the human LL-37

Compound: SKEKIGKEFKRIVQRIKDFLR [LL9-29]
- Hydrodynamic radius (nm) pH 5.8 ([2]; 1.0 μM peptide, phosphate buffer pH 5.8): 1281 nm
- Hydrodynamic radius (nm) pH 7.4 ([2]; 1.0 μM peptide, phosphate buffer pH 7.4): 446.5 nm
- pH-dependent dissociation of peptide particles, in words ([2]; acidification of phosphate buffer): failed to dissociate
- Enhancement of TLR3 signaling / poly(I:C)-induced IL-6, in words (TLR3 signaling): failed to enhance TLR3 signaling
- IL-6 production (%) poly(I:C)-depend. (TLR3 signaling; BEAS-2B cells induced with 130 ng/ml of poly(I:C), LL-37 100): 31 ± 3%
- IL-6 production (%) LPS-depend. (TLR4 signaling): 196 ± 11%
- Interaction with fLL-37, in words (f-LL37): did not
- Binding f-LL37: fold change in the fluorescence anisotropy values of f-LL-37 (f-LL37; between 1.0 nM and 1000 nM of added peptide): 2.6 ± 0.2 fold
